Laboratory results reported in US10752593B2, “Compounds for use as therapeutically active substances in the treatment of retinal diseases” (ENDOGENA THERAPEUTICS, INC., priority 2018, dated 2020).

Tested on: retinal precursor cells
Experiment: Sphere passaging and high-throughput drug screening: proliferation of retinal precursor cells within one week
Format: cell-based, mammalian
Details: for Cell proliferation within one week [%]: results table after the methods, retinal precursor cells grown one week with compound in 0.1% DMSO, control without compound = 100
Description: Kynurenic Acid (0.2 mg/mL), trypsin (1.33 mg/mL), and hyaluronidase (0.67 mg/mL) were weighed out and dissolved in high magnesium/low calcium artificial cerebral spinal fluid (aCSF) at 37° C. Fibroblast growth factor 2 (FGF2; 10 ng/mL) and heparin (2 μg/mL) were added to 100 mL of serum-free media (SFM). Ovomucoid trypsin inhibitor (1 mg/mL) was dissolved in warm SFM and sterile filtered ([…]).
A dissecting microscope, cold light source, and sterile surgical instruments were set up inside of a sterile biological safety cabinet (BSC). Mammalian eyes were enucleated and placed in a petri dish containing cold, sterile aCSF. Under the dissecting microscope, hair, connective tissue, and the dorsal and ventral oblique muscles were cleared from the scleral/corneal border with two sets of forceps. Next, curved or angled micro-dissecting scissors were used to cleave any remaining extraocular muscle tissue, the optic nerve, and cut the eyeball into symmetrical halves; beginning and finishing the cut from the hole left by the optic nerve. Using two sets of forceps to grasp the cornea, the two eye halves were peeled apart. The lens, optic nerve, and vitreous were separated from the eye shells and the eye shells were transferred into a new petri dish (also containing cold, sterile aCSF). To isolate the ciliary epithelium (CE), eye shells were oriented with the cornea on the right and retinal pigmented epithelium (RPE) on the left. A pair of straight forceps were used to pin down the eye shell on the RPE side while a scalpel blade was inserted between the CE and the iris, using pressure to slice the iris/cornea side off from the rest of the shell. Next, the scalpel was run along the border between the CE and the RPE to obtain the CE isolated as a thin strip of tissue. The CE strips were then transferred to a 35 mm dish containing 2 mL of dispase solution (Sigma; T1005) and incubated for 10 minutes at 37° C. Next, the strips were transferred from dispase into a 35 mm dish containing 2 mL of sterile filtered kynurenic acid, trypsin and hyaluronidase solution and incubated at 37° C. for 10 minutes. After incubation, the dish was returned to the dissecting scope, and the CE strips were pinned down with straight, non-serrated forceps, while non-serrated curved forceps were used to scrape the CE off from the underlying sclera. The bare scleral strips were then discarded, such that only the CE cells remained in the enzyme solution. Using a fire-polished, cotton-plugged glass pipette, the cells and enzyme solution were transferred to a 15 mL tube and triturated approximately 45 times to break apart the tissue. The 15 mL tube/cell suspension was centrifuged for 5 minutes at 1500 rpm. The supernatant was gently aspirated from the resulting pellet using a fire-polished, cotton-plugged glass pipette and 2 mL of trypsin inhibitor solution was added to the pellet. Using a small borehole, fire-polished, cotton-plugged glass pipette, the sample was triturated approximately 45 times until it was a single-cell suspension. The 15 mL tube/cell suspension was centrifuged for 5 minutes at 1500 rpm. The supernatant was gently aspirated from the resulting pellet and 1-2 mL of SFM with FGF2 and heparin (plating media) was added. The cells and media were mixed to ensure a uniform cell suspension and a 10 uL sample was taken and cell density was determined. The cells were then seeded and cultured at 10c/μL in culture-treated plates or flasks. After one week, roughly 1 in 500 cells proliferated to form free-floating, clonal spheres greater than 80 μm in diameter.
Human-derived spheres were passaged using the kynurenic acid, trypsin, hyaluronidase enzyme solution with the addition of collagenase I (0.5 mg/mL), collagenase II (0.5 mg/mL) and elastase (0.1 mg/mL). Mouse-derived spheres were passaged using hyaluronidase (0.67 mg/mL), collagenase I (0.5 mg/mL), and collagenase II (0.5 mg/mL) dissolved in Accustase solution (Sigma; SCR005). […]

| SMILES | Cell proliferation within one week [%] | increase of cell proliferation within one week (increase over control, retinal precursor cells) |
| --- | --- | --- |
| COc1ccccc1CC(=O)Nc1ccc(-c2ccncc2)c(OC)c1 [Compound E1068, N-(3-methoxy-4-(pyridin-4-yl)phenyl)-2-(2-methoxyphenyl)acetamide] | 108% | – |
| COc1cc(NC(=O)Cc2ccc(F)cc2F)ccc1-c1ccncc1 [Compound E1069, 2-(2,4-difluorophenyl)-N-(3-methoxy-4-(pyridin-4-yl)phenyl) acetamide] | 106% | – |
| COc1cc(NC(=O)Cc2cccc(C(F)(F)F)c2)ccc1-c1ccncc1 [Compound E1070, N-(3-methoxy-4-(pyridin-4-yl)phenyl)-2-(3-(trifluoromethyl)phenyl)acetamide] | 106% | – |
| COc1cc(NC(=O)Cc2ccccc2C(F)(F)F)ccc1-c1ccncc1 [Compound E1071, N-(3-methoxy-4-(pyridin-4-yl)phenyl)-2-(2-(trifluoromethyl)phenyl)acetamide] | 113% | – |
| COc1cccc(CC(=O)Nc2ccc(-c3ccncc3)c(OC)c2)c1 [Compound E1072, N-(3-methoxy-4-(pyridin-4-yl)phenyl)-2-(3-methoxyphenyl)acetamide] | 140% | 40% |
| COc1cc(NC(=O)Cc2ccccc2OC(F)F)ccc1-c1ccncc1 [Compound E1073] | 121% | – |
| COc1cccc(CC(=O)Nc2ccc(-c3ccncc3)cc2)c1 [Compound E1078, 2-(3-methoxyphenyl)-N-(4-(pyridin-4-yl)phenyl)acetamide] | 136% | – |
